From patent US20100267561A1, “HERBICIDAL PYRIDAZINONE DERIVATIVES” (priority 2007, published 2010)

Key:
Assay type in all cases: in vivo
[1] = tested on: downy bromegrass (Bromus tectorum); assay: Test B pre-/postemergence plant response; settings: for Bromegrass, Downy plant response rating: 8 g ai/ha
Description: (§1) Seeds of plant species selected from blackgrass (Alopecurus myosuroides), downy bromegrass (Bromus tectorum), green foxtail (Setaria viridis), Italian ryegrass (Lolium multiflorum), wheat (Triticum aestivum), wild oat (Avena fatua), catchweed bedstraw (Galium aparine), bermudagrass (Cynodon dactylon), surinam grass (Brachiaria decumbens), cocklebur (Xanthium strumarium), corn (Zea mays), large crabgrass (Digitaria sanguinalis), woolly cupgrass (Eriochloa villosa), giant foxtail (Setaria faberii), goosegrass (Eleusine indica), johnsongrass (Sorghum halepense), kochia (Kochia scoparia), lambsquarters (Chenopodium album), morningglory (Ipomoea coccinea), eastern black (E.B.) nightshade (Solanum ptycanthum), yellow nutsedge (Cyperus esculentus), pigweed (Amaranthus retroflexus), common ragweed (Ambrosia elation), Russian thistle (Salsola iberica), soybean (Glycine max), common (oilseed) sunflower (Helianthus annuus), and velvetleaf (Abutilon theophrasti) were planted and treated preemergence with test chemicals formulated in a non-phytotoxic solvent mixture which included a surfactant.
(§2) At the same time, plants selected from these crop and weed species and also winter barley (Hordeum vulgare), canarygrass (Phalaris minor), chickweed (Stellaria media) and windgrass (Apera spica-venti) were treated with postemergence applications of some of the test chemicals formulated in the same manner. Plants ranged in height from 2 to 18 cm (1- to 4-leaf stage) for postemergence treatments.
(§3) Plant species in the flooded paddy test consisted of rice (Oryza sativa), umbrella sedge (Cyperus difformis), ducksalad (Heteranthera limosa) and barnyardgrass (Echinochloa crus-galli) grown to the 2-leaf stage for testing. At time of treatment, test pots were flooded to 3 cm above the soil surface, treated by application of test compounds directly to the paddy water, and then maintained at that water depth for the duration of the test. Treated plants and controls were maintained in a greenhouse for 13 to 15 days, after which time all species were compared to controls and visually evaluated. Plant response ratings, summarized in Table B, are based on a scale of 0 to 100 where 0 is no effect and 100 is complete control. A dash (-) response means no test result.

[2] = tested on: giant foxtail (Setaria faberii); assay: Test B pre-/postemergence plant response
Description: as §1, §2, §3

[3] = tested on: Russian thistle (Salsola iberica); assay: Test B pre-/postemergence plant response; settings: Preemergence; for Russian Thistle plant response rating: scale 0 to 100
Description: as §1, §2, §3

[4] = tested on: common (oilseed) sunflower (Helianthus annuus); assay: Test B pre-/postemergence plant response; settings: Preemergence; for Sunflower plant response rating: scale 0 to 100
Description: as §1, §2, §3

[5] = tested on: goosegrass (Eleusine indica); assay: Test B pre-/postemergence plant response
Description: as §1, §2, §3

[6] = tested on: wheat (Triticum aestivum); assay: Test B pre-/postemergence plant response
Description: as §1, §2, §3

[7] = tested on: surinam grass (Brachiaria decumbens); assay: Test B pre-/postemergence plant response
Description: as §1, §2, §3

[8] = tested on: eastern black (E.B.) nightshade (Solanum ptycanthum); assay: Test B pre-/postemergence plant response; settings: Preemergence; for Nightshade, E. B. plant response rating: scale 0 to 100
Description: as §1, §2, §3

soybean (Glycine max) = assay: Test B pre-/postemergence plant response
Description: as §1, §2, §3

[9] = tested on: morningglory (Ipomoea coccinea); assay: Test B pre-/postemergence plant response
Description: as §1, §2, §3

rice (Oryza sativa) = assay: Test B flooded paddy test plant response
Method in brief: (§4)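 2-leaf plants; pots flooded 3 cm above soil; compound added to paddy water; depth maintained. Greenhouse 13–15 d. Visual rating vs controls, 0 (no effect) to 100 (complete control); dash = no result.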

[10] = tested on: barnyardgrass (Echinochloa crus-galli); assay: Test B flooded paddy test plant response
Method in brief: as §4

[11] = tested on: ducksalad (Heteranthera limosa); assay: Test B flooded paddy test plant response
Method in brief: as §4

[12] = tested on: umbrella sedge (Cyperus difformis); assay: Test B flooded paddy test plant response
Method in brief: as §4

[13] = Postemergence, 16 g ai/ha, scale 0 to 100
[14] = Postemergence, 31 g ai/ha, scale 0 to 100
[15] = Postemergence, 62 g ai/ha, scale 0 to 100, 0 no effect, 100 complete control
[16] = Preemergence, 31 g ai/ha, scale 0 to 100 (0 no effect, 100 complete control)
[17] = Preemergence, 62 g ai/ha, 0 to 100 scale, 0 no effect, 100 complete control
[18] = 8 g ai/ha, postemergence, 0-100 scale
[19] = Preemergence, 8 g ai/ha, scale 0 to 100
[20] = Preemergence, 16 g ai/ha, scale 0 to 100
[21] = 31 g ai/ha, scale 0 to 100 (0 no effect, 100 complete control)
[22] = 62 g ai/ha, 0 to 100 scale, 0 no effect, 100 complete control
[23] = 16 g ai/ha, postemergence, 0-100 scale
[24] = Flood (flooded paddy test), 62 g ai/ha, scale 0 to 100, 0 no effect, 100 complete control
[25] = Flood (flooded paddy test), 125 g ai/ha, scale 0 to 100, 0 no effect, 100 complete control
[26] = Flood (flooded paddy test), 250 g ai/ha, scale 0 to 100, 0 no effect, 100 complete control
[27] = Flood, 31 g ai/ha, scale 0 to 100

CCc1cc(-c2ccc(C(F)(F)F)cc2)nn1-c1c(O)c(OC)nn(C)c1=O [Compound 66]
Bromegrass, Downy plant response rating ([1]; postemergence, 0-100 scale): 80 | Plant response rating, Bromegrass, Downy [1, 13]: 95 | Plant response rating, Bromegrass, Downy [1, 14]: 98 | Plant response rating, Bromegrass, Downy [1, 15]: 98 | Plant response rating, Bromegrass, Downy ([1]; Preemergence, 16 g ai/ha, scale 0 to 100 (0 no effect, 100 complete control)): 85 | Plant response rating, Bromegrass, Downy [1, 16]: 100 | Plant response rating, Bromegrass, Downy [1, 17]: 100 | Bromegrass, Downy plant response rating ([1]; Preemergence, scale 0 to 100): 85 | Foxtail, Giant plant response rating [2, 18]: 85 | Plant response rating, Foxtail, Giant [2, 13]: 98 | Plant response rating, Foxtail, Giant [2, 14]: 100 | Plant response rating, Foxtail, Giant [2, 15]: 100 | Plant response rating, Foxtail, Giant [2, 16]: 95 | Plant response rating, Foxtail, Giant [2, 17]: 95 | Foxtail, Giant plant response rating [2, 19]: 0 | Foxtail, Giant plant response rating [2, 20]: 45 | Plant response rating, Russian Thistle [3, 21]: 0 | Plant response rating, Russian Thistle [3, 22]: 0 | Russian Thistle plant response rating ([3]; 8 g ai/ha): 0 | Russian Thistle plant response rating ([3]; 16 g ai/ha): 0 | Plant response rating, Sunflower [4, 21]: 0 | Plant response rating, Sunflower [4, 22]: 0 | Sunflower plant response rating ([4]; 8 g ai/ha): 0 | Sunflower plant response rating ([4]; 16 g ai/ha): 0 | Goosegrass plant response rating [5, 18]: 70 | Goosegrass plant response rating [5, 23]: 75 | Plant response rating, Goosegrass [5, 14]: 85 | Plant response rating, Goosegrass [5, 15]: 98 | Plant response rating, Goosegrass [5, 16]: 25 | Plant response rating, Goosegrass [5, 17]: 70 | Goosegrass plant response rating [5, 19]: 0 | Goosegrass plant response rating [5, 20]: 0 | Wheat plant response rating [6, 18]: 95 | Wheat plant response rating [6, 23]: 100 | Plant response rating, Wheat [6, 14]: 100 | Plant response rating, Wheat [6, 15]: 100 | Plant response rating, Wheat [6, 16]: 95 | Plant response rating, Wheat [6, 17]: 95 | Wheat plant response rating [6, 20]: 90 | Surinam Grass plant response rating [7, 18]: 95 | Surinam Grass plant response rating [7, 23]: 98 | Plant response rating, Surinam Grass [7, 14]: 100 | Plant response rating, Surinam Grass [7, 15]: 100 | Plant response rating, Surinam Grass [7, 16]: 98 | Plant response rating, Surinam Grass [7, 17]: 98 | Surinam Grass plant response rating [7, 19]: 0 | Surinam Grass plant response rating [7, 20]: 80 | Plant response rating, Nightshade, E. B. [8, 21]: 0 | Plant response rating, Nightshade, E. B. [8, 22]: 0 | Nightshade, E. B. plant response rating ([8]; 8 g ai/ha): 0 | Nightshade, E. B. plant response rating ([8]; 16 g ai/ha): 0 | Soybean plant response rating (soybean (Glycine max); [18]): 0 | Soybean plant response rating (soybean (Glycine max); [23]): 0 | Plant response rating, Soybean (soybean (Glycine max); [14]): 0 | Plant response rating, Soybean (soybean (Glycine max); [15]): 0 | Plant response rating, Soybean (soybean (Glycine max); [16]): 0 | Plant response rating, Soybean (soybean (Glycine max); [17]): 0 | Soybean plant response rating (soybean (Glycine max); [19]): 0 | Soybean plant response rating (soybean (Glycine max); [20]): 0 | Morningglory plant response rating [9, 18]: 0 | Morningglory plant response rating [9, 23]: 0 | Plant response rating, Morningglory [9, 14]: 0 | Plant response rating, Morningglory [9, 15]: 0 | Plant response rating, Morningglory [9, 16]: 0 | Plant response rating, Morningglory [9, 17]: 0 | Morningglory plant response rating [9, 19]: 0 | Morningglory plant response rating [9, 20]: 0 | Plant response rating, Rice (rice (Oryza sativa); [24]): 0 | Plant response rating, Rice (rice (Oryza sativa); [25]): 0 | Plant response rating, Rice (rice (Oryza sativa); [26]): 30 | Plant response rating, Rice (rice (Oryza sativa); [27]): 0 | Plant response rating, Barnyardgrass [10, 24]: 0 | Plant response rating, Barnyardgrass [10, 25]: 20 | Plant response rating, Barnyardgrass [10, 26]: 20 | Plant response rating, Barnyardgrass [10, 27]: 0 | Plant response rating, Ducksalad [11, 24]: 0 | Plant response rating, Ducksalad [11, 25]: 0 | Plant response rating, Ducksalad [11, 26]: 0 | Plant response rating, Ducksalad [11, 27]: 0 | Plant response rating, Sedge, Umbrella [12, 24]: 0 | Plant response rating, Sedge, Umbrella [12, 25]: 0 | Plant response rating, Sedge, Umbrella [12, 26]: 0 | Plant response rating, Sedge, Umbrella [12, 27]: 0
